Measured values as given in patent publication US7163953B2, “Benzylether derivatives” (Hoffmann-La Roche Inc., priority 2004, dated 2007).

Biological target: T1, HER-2 (Homo sapiens, UniProt P04626)
T1 construct: endogenous in cells; host or cells: Calu-3 (human non-small-cell lung cancer, ATCC HTB-55)
Assay: Inhibition of HER-2 phosphorylation in Calu-3 tumor cell line
Format: cell-based
Conditions: compound concentration 1 μM; Calu-3 cells, 16 h incubation; pY 1248 in HER-2; relative to DMSO control; read-out: Percent inhibition of HER-2-phosphorylation
Procedure: Inhibition of HER-2 Phosphorylation in Calu-3 Tumor Cell Line
2×10^5 Calu-3 cells (Non-Small-Cell Lung Cancer cells, ATTC HTB-55) per well were plated in a 12-well plate. After 4 days cells were starved for 16 h in Dulbecco's Modified Eagle Medium (DMEM)/0.5% Fetal Calf Serum (FCS)/1% Glutamine. During this 16 h period cells were incubated with a solution of the test compound in dimethylsulfoxide (DMSO), so that the final concentration of the compound is 1 μM and the final volume of DMSO is 0.5%. […] Cell lysates were analyzed on a Sodium Dodecyl Sulfate Polyacrylamide Gel Electrophoresis (SDS PAGE) and after transfer to a nitrocellulose membrane detected with an antibody specifically recognizing the pY 1248 in HER-2 (phosphorylated tyrosine residue 1248 of human […]). After incubation with an anti rabbit antibody coupled to POD (peroxidase available from Biorad, Munich, Germany) signals were detected by chemiluminescence (ECL, Amersham). Inhibition of HER-2 phosphorylation is calculated as a percentage of the control, which is treated with DMSO only. The percentage of the inhibition is calculated according to the following formula: Inhibition in %=100−(Phosphorylated-HER2-Signal of Test Sample* 100/Phosphorylated-HER2-Signal DMSO-control).

T1 sequence (P04626 23-1255): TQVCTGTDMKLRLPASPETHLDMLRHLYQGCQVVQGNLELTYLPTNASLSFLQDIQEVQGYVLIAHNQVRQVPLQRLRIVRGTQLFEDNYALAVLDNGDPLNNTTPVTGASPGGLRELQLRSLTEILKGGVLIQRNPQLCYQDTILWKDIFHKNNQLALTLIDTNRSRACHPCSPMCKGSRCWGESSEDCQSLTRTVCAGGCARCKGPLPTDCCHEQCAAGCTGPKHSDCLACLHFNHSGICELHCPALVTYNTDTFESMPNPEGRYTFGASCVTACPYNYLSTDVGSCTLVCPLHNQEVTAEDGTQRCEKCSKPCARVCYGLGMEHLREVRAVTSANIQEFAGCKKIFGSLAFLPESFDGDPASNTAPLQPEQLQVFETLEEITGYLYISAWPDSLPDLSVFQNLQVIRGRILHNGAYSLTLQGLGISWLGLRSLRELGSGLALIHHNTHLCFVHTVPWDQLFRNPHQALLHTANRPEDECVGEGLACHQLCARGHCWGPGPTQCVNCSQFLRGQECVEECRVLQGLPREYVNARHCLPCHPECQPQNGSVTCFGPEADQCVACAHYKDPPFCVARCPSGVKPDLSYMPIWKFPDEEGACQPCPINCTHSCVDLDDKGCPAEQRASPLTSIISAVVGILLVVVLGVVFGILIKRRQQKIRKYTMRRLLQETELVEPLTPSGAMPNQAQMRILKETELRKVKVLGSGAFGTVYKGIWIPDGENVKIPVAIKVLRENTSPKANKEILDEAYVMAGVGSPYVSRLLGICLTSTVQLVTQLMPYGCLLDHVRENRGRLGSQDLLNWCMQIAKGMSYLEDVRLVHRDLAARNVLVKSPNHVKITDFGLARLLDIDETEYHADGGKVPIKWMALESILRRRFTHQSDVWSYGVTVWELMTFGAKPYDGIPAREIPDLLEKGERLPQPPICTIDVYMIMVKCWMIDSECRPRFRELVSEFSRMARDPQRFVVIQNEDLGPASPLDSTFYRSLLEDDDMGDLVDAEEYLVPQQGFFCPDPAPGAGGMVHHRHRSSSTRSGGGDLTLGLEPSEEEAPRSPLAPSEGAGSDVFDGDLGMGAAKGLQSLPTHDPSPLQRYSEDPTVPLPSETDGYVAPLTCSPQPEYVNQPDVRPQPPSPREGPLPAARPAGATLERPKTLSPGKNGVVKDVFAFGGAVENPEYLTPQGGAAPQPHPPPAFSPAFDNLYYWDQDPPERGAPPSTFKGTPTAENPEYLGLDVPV

inhibition at 1 µM | SMILES
65 to 80% | Fc1cc(Cl)ccc1/C=C/c1nc(COc2ccc(COCCn3ccnn3)cc2)co1 [Example 1, 1-[2-(4-{2-[2-(E)-(4-Chloro-2-fluoro-phenyl)-vinyl]-oxazol-4-ylmethoxy}-benzyloxy)-ethyl]-1H-[1,2,3]triazole]
> 80% | Clc1ccc(/C=C/c2nc(COc3ccc(COCCn4ccnn4)cc3)co2)cc1 [Example 2, 1-[2-(4-{2-[2-(E)-(4-Chloro-phenyl)-vinyl]-oxazol-4-ylmethoxy}-benzyloxy)-ethyl]-1H-[1,2,3]triazole]
